{
  "source": "patent US6514954B1",
  "about": "“Pesticidal compositions” (priority 1997, dated 2003)",
  "test_system": "Myzus persicae",
  "assay": "Example B6: action against Myzus persicae (leaf circle bioassay, sprayed Capsicum plants)",
  "type": "in vivo",
  "details": "96 h, read-out: Action % (mortality of nymphs)",
  "description": "A synergistic effect is always present if the action EA of the combination of an active compound of the formula (A) with one of the active compounds (I) to (XXXI) is greater than the sum of the action of the active compounds applied individually:\nHowever, the pesticidal action EA to be expected for a given combination of two pesticides can also be calculated as follows (cf. COLBY, S. R., “Calculating synergistic and antagonistic response of herbicide combinations”, Weeds 15, Pages 20-22, 1967): [formula]\nX=Percent mortality on treatment with the compound of the formula (A) at a rate of application of p kg per hectare compared with the untreated control (=0%).\nY=Percent mortality on treatment with a compound (I) to (XXXI) at a rate of application of q kg per hectare compared with the untreated control.\nEA=Expected pesticidal action (percent mortality compared with the untreated control) after treatment with the compound of the formula (A) and a compound (I) to (XXXI) at a rate of application of p+q kg of active compound per hectare.\nIf the action actually observed is greater than the expected value EA, synergism exists.\nAction Against Myzus persicae\nCapsicum plants (Capsicum annuum L.) 6 weeks old are sprayed with an aqueous emulsion spray liquor which comprises the individual compounds and mixtures according to the following table. The plants were placed in a greenhouse until determination of the activity.\nThe activity against Myzus persicae was measured in bioassays. 2-4 hours after application, circles of leaf are stamped out, placed with the upper side down on agar in Petri dishes and infested with an M. persicae mixed population consisting of 40-50 non-synchronous individuals. A total of 9 circles of leaf per concentration are used. The Petri dishes are covered with a cotton wool filter, closed with a plastic lid and placed in a climatically controlled chamber for plants. One day after infestation, the circles of leaf are cleaned of adults, skins and nymphs, so that only 25-40 nymphs laid overnight remain per circle of leaf. Four days after infestation, the mortality is determined by counting the dead and living nymphs. The tests are carried out 3 times. The results shown in the table are the average values of the tests.",
  "data": [
    {"smiles": "CC1(C)C(C=C(Cl)Cl)C1C(=O)OC(C#N)c1cccc(Oc2ccccc2)c1", "note": "(racemic) [Cypermethrin high-cis, (RS)-α-cyano-3-phenoxybenzyl (1RS)-cis-trans-3-(2,2-dichlorvinyl)-1,1-dimethylcyclo-propanecarboxylate]", "values": [
      {"measurement": "mortality at 600 ppm", "setting": "Conc. 600 ppm, four days after infestation, average of 3 tests", "value": 8.2, "unit": "%"}
    ]},
    {"smiles": "CN1COCN(Cc2cnc(Cl)s2)C1=N[N+](=O)[O-]", "note": "[A.5, 5-(2-chlorothiazol-5-ylmethyl)-3-methyl-4-nitroimino-perhydro-1,3,5-oxadiazine]", "values": [
      {"measurement": "mortality at 0.1 ppm", "setting": "Conc. 0.1 ppm, four days after infestation, average of 3 tests", "value": 5.9, "unit": "%"},
      {"measurement": "mortality at 0.2 ppm", "setting": "Conc. 0.2 ppm, four days after infestation, average of 3 tests", "value": 35, "unit": "%"}
    ]},
    {"smiles": "CCCSP(=O)(OCC)Oc1ccc(Br)cc1Cl", "note": "(centres unmarked) [Profenofos, O-4-bromo-2-chlorophenyl O-ethyl S-propyl phosphorothioate]", "values": [
      {"measurement": "mortality at 35 ppm", "value": 12.3, "unit": "%"}
    ]},
    {"smiles": "CC1=NNC(=O)N(N=Cc2cccnc2)C1", "note": "[Pymetrozine, 2,3,4,5-tetrahydro-3-oxo-4-[(pyridin-3-yl)-methyleneamino]-6-methyl-1,2,4-triazine]", "values": [
      {"measurement": "mortality at 0.3 ppm", "setting": "Conc. 0.3 ppm, four days after infestation, average of 3 tests", "value": 38.4, "unit": "%"}
    ]}
  ]
}
